Assay results reported in the Kinase Knowledgebase extract (Sharma et al. 2016).

Experiments:
[1] = biological target: EGFR (human), P00533 [WT]
[2] = biological target: EGFR (human) (UniProt P00533); details: a431
[3] = biological target: EGFR (human), P00533 [T790M]
Chain of EGFR (human), P00533 [T790M] (P00533 whole entry T790M, looked up): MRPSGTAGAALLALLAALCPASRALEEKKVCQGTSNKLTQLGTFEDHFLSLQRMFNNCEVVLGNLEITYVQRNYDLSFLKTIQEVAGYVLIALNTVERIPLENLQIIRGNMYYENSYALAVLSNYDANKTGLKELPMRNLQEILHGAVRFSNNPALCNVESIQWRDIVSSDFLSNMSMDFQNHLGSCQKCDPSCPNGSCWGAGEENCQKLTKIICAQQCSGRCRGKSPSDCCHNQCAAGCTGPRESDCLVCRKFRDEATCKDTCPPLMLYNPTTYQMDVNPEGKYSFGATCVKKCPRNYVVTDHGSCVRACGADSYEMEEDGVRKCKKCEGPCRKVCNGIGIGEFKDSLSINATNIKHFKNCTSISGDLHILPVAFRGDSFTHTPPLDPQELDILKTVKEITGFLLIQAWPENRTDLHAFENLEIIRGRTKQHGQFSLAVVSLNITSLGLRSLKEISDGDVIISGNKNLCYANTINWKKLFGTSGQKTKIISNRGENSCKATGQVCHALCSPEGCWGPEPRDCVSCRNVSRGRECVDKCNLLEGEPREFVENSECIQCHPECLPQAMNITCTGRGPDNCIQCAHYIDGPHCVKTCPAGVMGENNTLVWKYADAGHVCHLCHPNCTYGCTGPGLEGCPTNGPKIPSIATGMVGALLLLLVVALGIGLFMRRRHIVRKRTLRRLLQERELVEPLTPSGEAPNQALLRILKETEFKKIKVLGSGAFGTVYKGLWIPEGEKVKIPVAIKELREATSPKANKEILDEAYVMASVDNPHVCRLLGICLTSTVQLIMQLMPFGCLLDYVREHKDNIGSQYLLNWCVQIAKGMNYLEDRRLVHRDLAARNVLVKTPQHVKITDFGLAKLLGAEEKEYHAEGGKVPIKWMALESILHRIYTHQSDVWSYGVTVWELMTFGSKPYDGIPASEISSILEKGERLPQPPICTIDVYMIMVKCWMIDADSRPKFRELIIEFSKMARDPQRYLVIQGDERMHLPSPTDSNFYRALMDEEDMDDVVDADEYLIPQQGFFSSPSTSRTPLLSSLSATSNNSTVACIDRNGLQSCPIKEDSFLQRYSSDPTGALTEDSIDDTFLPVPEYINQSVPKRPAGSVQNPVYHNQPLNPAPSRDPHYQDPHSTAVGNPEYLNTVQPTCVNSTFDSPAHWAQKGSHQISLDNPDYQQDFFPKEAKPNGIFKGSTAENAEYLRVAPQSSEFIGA

Chain of EGFR (human), P00533 [WT] (P00533 whole entry, looked up): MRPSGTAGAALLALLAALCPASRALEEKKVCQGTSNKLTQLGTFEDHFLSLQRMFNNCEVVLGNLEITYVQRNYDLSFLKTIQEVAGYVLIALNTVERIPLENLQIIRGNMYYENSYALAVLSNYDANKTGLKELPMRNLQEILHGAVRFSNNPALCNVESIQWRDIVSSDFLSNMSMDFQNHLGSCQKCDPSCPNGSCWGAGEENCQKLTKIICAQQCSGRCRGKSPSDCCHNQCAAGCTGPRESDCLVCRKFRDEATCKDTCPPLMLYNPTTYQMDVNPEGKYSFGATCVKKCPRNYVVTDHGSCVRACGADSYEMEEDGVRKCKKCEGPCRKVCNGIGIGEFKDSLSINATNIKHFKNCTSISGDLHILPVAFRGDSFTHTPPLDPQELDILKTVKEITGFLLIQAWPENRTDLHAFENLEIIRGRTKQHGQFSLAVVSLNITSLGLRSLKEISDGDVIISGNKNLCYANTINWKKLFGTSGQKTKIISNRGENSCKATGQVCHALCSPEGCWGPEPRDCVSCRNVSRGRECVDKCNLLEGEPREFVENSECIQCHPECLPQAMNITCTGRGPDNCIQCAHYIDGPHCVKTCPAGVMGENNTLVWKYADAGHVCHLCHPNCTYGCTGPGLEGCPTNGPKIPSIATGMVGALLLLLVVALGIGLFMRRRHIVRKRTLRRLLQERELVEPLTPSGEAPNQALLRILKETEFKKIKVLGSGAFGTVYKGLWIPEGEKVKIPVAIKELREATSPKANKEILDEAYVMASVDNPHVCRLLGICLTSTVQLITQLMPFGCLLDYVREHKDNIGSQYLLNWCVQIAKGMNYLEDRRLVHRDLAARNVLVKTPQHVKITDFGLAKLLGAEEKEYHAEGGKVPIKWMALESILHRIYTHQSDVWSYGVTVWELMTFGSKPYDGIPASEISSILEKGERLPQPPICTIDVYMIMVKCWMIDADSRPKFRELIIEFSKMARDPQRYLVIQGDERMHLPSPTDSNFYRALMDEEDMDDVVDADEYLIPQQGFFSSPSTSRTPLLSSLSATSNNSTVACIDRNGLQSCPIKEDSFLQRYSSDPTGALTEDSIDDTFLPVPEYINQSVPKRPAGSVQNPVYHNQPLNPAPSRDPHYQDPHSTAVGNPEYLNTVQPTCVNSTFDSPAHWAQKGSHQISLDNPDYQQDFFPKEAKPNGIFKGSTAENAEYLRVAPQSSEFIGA
Chain of EGFR (human) (P00533 whole entry, looked up): as above

| SMILES | IC50 [1] | IC50 [2] | IC50 [3] |
| --- | --- | --- | --- |
| C=CC(=O)NCc1cc(-c2cncnc2Nc2ccc(OCc3cccc(F)c3)c(Cl)c2)on1 | 0.0103 µM | 0.079 µM | 0.0408 µM |
| CN(C)C/C=C/C(=O)NCc1coc(-c2c(N)ncnc2Nc2ccc(OCc3ccccn3)c(Cl)c2)n1 | 0.0061 µM | 0.029 µM | 0.161 µM |
| C=CC(=O)NCc1coc(-c2c(N)ncnc2Nc2ccc(OCc3ccccn3)cc2F)n1 | 0.0085 µM | – | 0.171 µM |
| C=CC(=O)NCc1coc(-c2c(N)ncnc2Nc2ccc(Oc3cc(Cl)ccc3Cl)c(Cl)c2)n1 | 0.0039 µM | – | 0.0032 µM |
| C=CC(=O)NCc1coc(-c2c(N)ncnc2Nc2ccc(Oc3ccnn3C)c(Cl)c2)n1 | 0.0084 µM | 0.0084 µM | 0.125 µM |
| C=CC(=O)NCc1coc(-c2c(N)ncnc2Nc2ccc(F)c(Cl)c2)n1 | – | – | 0.0501 µM |
| C=CC(=O)NCc1coc(-c2c(N)ncnc2Nc2ccc(Oc3ccccc3)c(Cl)c2)n1 | 0.007 µM | – | 0.0033 µM |
| C=C(CN(C)C)C(=O)NCc1cc(-c2cncnc2Nc2ccc(OCc3ccccn3)c(Cl)c2)on1 | 0.0088 µM | 0.001 µM | 0.0123 µM |
| C=C(CN1CCN(C)CC1)C(=O)NCc1cc(-c2cncnc2Nc2ccc(OCc3ccccn3)c(Cl)c2)on1 | – | 0.309 µM | – |
| CN(C)C/C=C/C(=O)NCc1coc(-c2c(N)ncnc2Nc2ccc(Oc3ccccc3)c(Cl)c2)n1 | – | 0.0785 µM | – |
| C=CC(=O)NCC1COC(c2c(N)ncnc2Nc2ccc(OCc3ccccn3)c(Cl)c2)=N1 (centres undefined) | – | 0.13 µM | – |
| C=CC(=O)NCc1coc(-c2c(NC(C)=O)ncnc2Nc2ccc(OCc3ccccn3)c(Cl)c2)n1 | – | 0.0142 µM | – |
| C=C(CN1CCCC1)C(=O)NCc1cc(-c2cncnc2Nc2ccc(OCc3ccccn3)c(Cl)c2)on1 | – | 0.266 µM | – |
| C=CC(=O)N1CCC(c2cc(-c3cncnc3Nc3ccc(OCc4cccc(F)c4)c(Cl)c3)on2)CC1 | – | 3.08 µM | – |
| C=CC(=O)NCc1coc(-c2c(N)ncnc2Nc2ccc(Oc3ccccn3)c(Cl)c2)n1 | 0.0042 µM | – | 0.016 µM |
| Cc1ccc(Oc2ccc(Nc3ncnc(N)c3-c3nc(CNC(=O)/C=C/CN(C)C)co3)cc2C)cn1 | – | 0.326 µM | – |
| C=CC(=O)NCc1cc(-c2cncnc2Nc2ccc(OCc3ccccn3)c(Cl)c2)on1 | 0.0091 µM | 0.002 µM | 0.101 µM |
| C=CC(=O)N1CCCC(c2cc(-c3cncnc3Nc3ccc(OCc4cccc(F)c4)c(Cl)c3)on2)C1 (centres undefined) | – | 1.04 µM | – |
| C=CC(=O)NCc1coc(-c2c(N)ncnc2Nc2ccc(OCc3cccc(F)c3)c(Cl)c2)n1 | 0.0277 µM | – | 0.019 µM |
| O=C(/C=C\CO)NCc1cc(-c2cncnc2Nc2ccc(OCc3ccccn3)c(Cl)c2)on1 | – | 0.618 µM | – |
| C=CC(=O)NCc1coc(-c2c(N)ncnc2Nc2ccc(F)c(C)c2)n1 | – | 0.0912 µM | – |
| C=C(CN(C)C)C(=O)NCc1coc(-c2c(N)ncnc2Nc2ccc(OCc3ccccn3)c(Cl)c2)n1 | 0.0032 µM | 0.19 µM | 0.0025 µM |
| C=CC(=O)NCc1cc(-c2cncnc2Nc2ccc(Br)c(Cl)c2F)on1 | – | 0.065 µM | – |
| C=C(CN(C)C)C(=O)NCc1coc(-c2c(N)ncnc2Nc2ccc(Oc3ccc(C)nc3)c(C)c2)n1 | – | 0.352 µM | – |

| SMILES | IC50 [1] | IC50 [2] | IC50 [3] |
| --- | --- | --- | --- |
| C=CC(=O)NCc1coc(-c2cncnc2Nc2ccc(OCc3ccccn3)c(Cl)c2)n1 | 0.0039 µM | – | 0.0136 µM |
| C=C(CN(C)C)C(=O)NCc1coc(-c2c(N)ncnc2Nc2ccc(F)c(Cl)c2)n1 | – | 0.026 µM | 0.0069 µM |
| Nc1ncnc(Nc2ccc(OCc3ccccn3)c(Cl)c2)c1-c1nc(CNC(=O)CCO)co1 | – | 0.137 µM | – |
| COCCC(=O)NCc1coc(-c2c(N)ncnc2Nc2ccc(Oc3ccccc3F)c(Cl)c2)n1 | – | 0.291 µM | – |
| C=CC(=O)NCc1coc(-c2c(N)ncnc2Nc2ccc(Oc3cccnc3)c(Cl)c2)n1 | – | – | 0.0221 µM |
| C=CC(=O)N(C)Cc1cc(-c2cncnc2Nc2ccc(OCc3cccc(F)c3)c(Cl)c2)on1 | – | 0.0687 µM | – |
| C=CC(=O)N1CCCC1c1cc(-c2cncnc2Nc2ccc(OCc3cccc(F)c3)c(Cl)c2)on1 (centres undefined) | – | 0.131 µM | – |
| C=CC(=O)NCc1coc(-c2c(N)ncnc2Nc2ccc(Oc3ccc(C)nc3)c(C)c2)n1 | – | – | 0.106 µM |
| C=CC(=O)NCc1coc(-c2cncnc2Nc2ccc(F)c(Cl)c2)n1 | – | 0.437 µM | – |
| C=C(CN1CCOCC1)C(=O)NCc1cc(-c2cncnc2Nc2ccc(OCc3ccccn3)c(Cl)c2)on1 | 0.0213 µM | 0.182 µM | – |
| C=CC(=O)NCc1coc(-c2c(NC(C)=O)ncnc2Nc2ccc(Oc3cc(C(F)(F)F)nn3C)c(Cl)c2)n1 | 0.0454 µM | – | 0.414 µM |
| CN(C)C/C=C/C(=O)NCc1cc(-c2cncnc2Nc2ccc(OCc3cccc(F)c3)c(Cl)c2)on1 | – | 0.111 µM | – |
| C=CC(=O)NCc1coc(-c2c(N)ncnc2Nc2ccc(OCc3ccccn3)c(F)c2)n1 | 0.0049 µM | – | 0.129 µM |
| Nc1ncnc(Nc2ccc(Oc3ccccc3F)c(Cl)c2)c1-c1nc(CNC(=O)CCO)co1 | – | 0.826 µM | – |
| CN(C)C/C=C/C(=O)NCc1coc(-c2c(N)ncnc2Nc2ccc(F)c(Cl)c2)n1 | – | 0.088 µM | – |
| C=C(CS(C)(=O)=O)C(=O)NCc1cc(-c2cncnc2Nc2ccc(OCc3ccccn3)c(Cl)c2)on1 | – | 0.289 µM | – |
| CN(C)C/C=C/C(=O)NCc1cc(-c2cncnc2Nc2ccc(OCc3ccccn3)c(Cl)c2)on1 | – | 0.005 µM | – |
| CN(C)C/C=C/C(=O)NCc1coc(-c2cncnc2Nc2ccc(OCc3ccccn3)c(Cl)c2)n1 | 0.0045 µM | 0.119 µM | 0.155 µM |
| C=C(CN(C)C)C(=O)NCc1coc(-c2cncnc2Nc2ccc(F)c(Cl)c2)n1 | – | 0.0986 µM | – |
| C=CC(=O)NCCc1cc(-c2cncnc2Nc2ccc(OCc3cccc(F)c3)c(Cl)c2)on1 | – | 0.504 µM | – |
| C=CC(=O)NCc1coc(-c2c(N)ncnc2Nc2ccc(Sc3nccn3C)c(Cl)c2)n1 | – | 0.423 µM | – |
| Nc1ncnc(Nc2ccc(Oc3ccccc3F)c(Cl)c2)c1-c1nc(CNC(=O)CO)co1 | – | 0.159 µM | – |
| C=C(CN(CC)CC)C(=O)NCc1cc(-c2cncnc2Nc2ccc(OCc3ccccn3)c(Cl)c2)on1 | – | 0.391 µM | – |
| C=C(CN(C)C)C(=O)NCc1coc(-c2cncnc2Nc2ccc(OCc3ccccn3)c(Cl)c2)n1 | 0.0035 µM | 0.313 µM | 0.0034 µM |
